Test results from patent US20110275714A1, “Use Of Cationic Surfactants As Acaricidal Agents” (priority 2009, published 2011).
“Also recorded” adds a separate entry of the source.

How the values were obtained:
[1] = system: Escherichia coli 0157H7; settings: Gram − Bacteria; cited from earlier work
[2] = system: Aspergillus niger ATCC14604; settings: Fungi; cited from earlier work
[3] = system: Gliocadium virens ATCC 4645; settings: Fungi; cited from earlier work
[4] = system: Arthrobacter oxydans ATCC 8010; settings: Gram + Bacteria; cited from earlier work
[5] = system: Pseudomonas aeruginosa ATCC 9027; settings: Gram − Bacteria; cited from earlier work
[6] = system: Penicillium chrysogenum CECT 2802; settings: Fungi; cited from earlier work
[7] = system: Staphylococcus aureus ATCC 6538; settings: Gram + Bacteria; cited from earlier work
[8] = system: Mold mite Tyrophagus putrescentiae; assay: Mold mite survivorship in diet with Mirenat-G (LAE in glycerin), four weeks (Example 3); format: in vivo; settings: for Mold mites number: four weeks after infestation with 25 individuals, n = 15, means ± SEM
Procedure: This example determines the effect of three different concentrations of LAE on the mortality, reproduction and immature development of mold mite Tyrophagus putrescentiae. The dose level tested were 0.125%, 0.25% and 0.5% of LAE.
(§1) Mixed developmental stages of the Mold mite, Tyrophagus putrescentiae, were used in the experiments. The individuals of this specie came from IRTA, Crop Protection Department and had been maintained on standard diets at 25±1° C., 70±10% r.h. and a photoperiod of 16:8 L:D. Experiments were conducted in a climatic chamber at the same environmental conditions.
The food additive Mirenat-G (10.5% LAE in glycerin) was supplied by the company VEDEQSA and was uniformly mixed with a mix of bran, brewer's yeast for the Mold mite. It was tested at the following dosages of 0.125%, 0.25% and 0.5% LAE. A control treatment with no food additive was included for reference. Fifteen replications per treatment were prepared.
(§2) For the mold mite, the experimental arenas were ventilated plastic cages (100 ml) containing 15 g of a mixed diet (bran, brewer's yeast and glycerin). Mites were added to arenas in numbers of 25 individuals. Plastic cages were isolated in hermetic boxes containing a solution of glycerine in order to maintain the relative humidity at 75%.
Four weeks after T. putrescentiae infestation the total number of individuals present in each replication was counted.
The mean number of individuals were compared between treatments with or without the additive for the pest specie using a one-way analysis of variance (ANOVA) procedure and means were separated by Tukey test (PROC GLM; SAS Institute 2000).

[9] = system: Enterobacter aerogenes CECT 689; settings: Gram − Bacteria; cited from earlier work
[10] = system: Rhodotorula rubra CECT 1158; settings: Yeast; cited from earlier work
[11] = system: mite colonies; assay: Mite colonies on cured ham treated with LAE on the surface (Example 4); format: in vivo
Procedure: A dose level of 200 ppm of LAE (or 0.02% of LAE) was added onto the surface of a ham at the beginning of its curing process. The results were compared with a control sample that consisted on a cured ham without being treated with LAE. All hams (control and treated with LAE) were cured during a period of 6 months.
After 6 months, when the curing process was finished it was observed that 85% of ham not treated with LAE (control samples) had mite colonies alive onto the surfaces of hams. In contrast, only 30% of hams treated with LAE had mite colonies alive onto their surface.
Before delivering the hams to the client, the producer extracted the bone in order to slice the ham. It was observed that 25% of ham non-treated with LAE (control) contained mite colonies alive inside the ham. The presence of mite colonies produced the formation of holes between 2 to 3 cm of diameter. These holes in the ham looked like a putrefacted ham.

[12] = rats; cited from earlier work
[13] = animals and humans; cited from earlier work
[14] = system: Aureobasidium pullulans ATCC 9348; settings: Fungi; cited from earlier work
[15] = system: Micrococcus luteus ATCC 9631; settings: Gram + Bacteria; cited from earlier work
[16] = system: Bacillus cereus var mycoide ATCC 11778; settings: Gram + Bacteria; cited from earlier work
[17] = system: Penicillium funiculosum CECT 2914; settings: Fungi; cited from earlier work
[18] = system: Chaetonium globosum ATCC 6205; settings: Fungi; cited from earlier work
[19] = system: Hyalomma marginatum rufipes; assay: Mortality of adult ticks in vials with LAE in a food carrier (Example 1); settings: 24 h contact
Procedure: This example determines the activity of LAE against a type of tick, Hyalomma marginatum rufipes.
During 3 weeks adult ticks of Hyalomma marginatum rufipes were unfed. 15 unsexed ticks were introduced in each vial of treatment. All vials were closed with a mesh and plastic bands in order to avoid that ticks could escape from the vials. The mortality of ticks was studied 24 h later and compared from the different treatments performed.
Two types of treatment were performed and then compared with the control. One treatment consisted in a dispersion of 0.2% LAE in a food carrier. The other treatment was 1.0% LAE in a food carrier. The control was a vial that contained the ticks without LAE. For each treatment and control samples 5 replicates were carried out.
After 24 hours of contact of ticks with LAE in the vials, the percentage of mortality of ticks was determined (Table 2).

[20] = system: Bordetella bronchiseptica ATCC 4617; settings: Gram − Bacteria; cited from earlier work
[21] = system: Mycobacterium phlei ATCC 41423; settings: listed under Gram − Bacteria; cited from earlier work
[22] = system: Candida albicans ATCC 10231; settings: Yeast; cited from earlier work
[23] = system: Leuconostoc mesenteroides CETC 912; settings: Gram + Bacteria; cited from earlier work
[24] = system: Escherichia coli ATCC 8739; settings: Gram − Bacteria; cited from earlier work
[25] = system: Alcaligenes faecalis ATCC 8750; settings: Gram − Bacteria; cited from earlier work
[26] = system: Klebsiella pneumoniae var pneumoniae CECT 178; settings: Gram − Bacteria; cited from earlier work
[27] = system: Proteus mirabilis CECT 170; settings: Gram − Bacteria; cited from earlier work
[28] = system: Citrobacter freundii ATCC 22636; settings: Gram − Bacteria; cited from earlier work
[29] = system: Lactobacillus delbrueckii ssp lactis CECT 372; settings: Gram + Bacteria; cited from earlier work
[30] = system: Serratia marcenses CECT 274; settings: Gram − Bacteria; cited from earlier work
[31] = system: Salmonella typhimurium ATCC16028; settings: Gram − Bacteria; cited from earlier work
[32] = system: Clostridium perfringens ATCC 77454; settings: Gram + Bacteria; cited from earlier work
[33] = system: Saccharomyces cerevisiae ATCC 9763; settings: Yeast; cited from earlier work
[34] = system: Listeria monocytogenes ATCC 7644; settings: Gram + Bacteria; cited from earlier work
[35] = system: Mold mite Tyrophagus putrescentiae; assay: Mold mite survivorship in rearing diet with LAE, six weeks (Example 2); format: in vivo; settings: 1% LAE in diet
Procedure: This example determines the effect of LAE on the mortality, reproduction and immature development of Mold mite Tyrophagus putrescentiae.
as §1, with “the species” for “this specie”
The food additive (LAE) was supplied by the company VEDEQSA as a fine sifted dust, and was uniformly mixed with a mix of bran, brewer's yeast and glycerin for the Mold mite. A high dosage of 1% LAE was tested. A control treatment with no food additive was included for reference. Fifteen replications per treatment were prepared.
as §2, with “giycerine).” for “glycerin).”
Six weeks after T. putrescentiae infestation the total number of individuals present in each replication was counted. […]

[36] = system: Bacillus subtilis ATCC 6633; settings: Gram + Bacteria; cited from earlier work

In the case of `CCCCCCCCCCCC(=O)N[C@@H](CCCN=C(N)N)C(=O)OCC.Cl` [LAE, ethyl ester of the lauramide of the arginine monohydrochloride], the M.I.C. [1] is listed as 20 ppm, the M.I.C. [2] is listed as 32 ppm and the M.I.C. [3] is listed as 32 ppm. The M.I.C. [4] was 64 ppm, the M.I.C. [5] was 64 ppm and the M.I.C. [6] was 128 ppm. The M.I.C. [7] was 32 ppm, the Mold mites number ([8]; 0.125% LAE (as Mirenat-G) in diet) was 20.9 ± 9.77 and the Mold mites number ([8]; 0.25% LAE (as Mirenat-G) in diet) was 13.17 ± 3.70. The Mold mites number ([8]; 0.5% LAE (as Mirenat-G) in diet) was 6.7 ± 1.49, the “reduction in the mean number of individuals present” value ([8]; 0.5% of LAE, after 4-week infestation) was 70% and the M.I.C. [9] was 32 ppm. The M.I.C. [10] was 16 ppm, the “hams with mite colonies alive onto their surface” value ([11]; 200 ppm (0.02%) LAE on ham surface at start of curing, after 6 months curing) was 30% and the “mite colonies alive inside the ham” value ([11]; 200 ppm (0.02%) LAE on ham surface, sliced ham after 6 months curing) was “no presence of mite colonies alive inside the ham”. The absorption and metabolisation [12] was “fast absorption and metabolisation into naturally-occurring amino acids and the fatty acid lauric acid”, the toxicological studies [13] was “completely harmless to animals and humans” and the M.I.C. [14] was 16 ppm. For the same molecule, the M.I.C. [15] was 128 ppm, the M.I.C. [16] was 32 ppm and the M.I.C. [17] was 16 ppm. For the same molecule, the M.I.C. [18] was 16 ppm, the Mortality ([19]; 0.2% LAE in a food carrier, n = 5) was 6.7% and the Mortality ([19]; 1.0% LAE in a food carrier, n = 5, monohydrochloride) was 38.7%. For the same molecule, the M.I.C. [20] was 128 ppm, the M.I.C. [21] was 2 ppm and the M.I.C. [22] was 16 ppm. The M.I.C. [23] was 32 ppm, the M.I.C. [24] was 32 ppm and the M.I.C. [25] was 64 ppm. The M.I.C. [26] was 32 ppm, the M.I.C. [27] was 32 ppm and the M.I.C. [28] was 64 ppm. The M.I.C. [29] was 16 ppm, the M.I.C. [30] was 32 ppm and the M.I.C. [31] was 32 ppm. The M.I.C. [32] was 16 ppm, the M.I.C. [33] was 32 ppm and the M.I.C. [34] was 10 ppm. For the same molecule, the Mold mites number ([35]; six weeks after infestation with 25 individuals, n = 15, mean ± SEM) was 0.1 ± 0.1^, the “survivorship of the Mold mite in the standard rearing diet” value ([35]; six weeks after infestation, monohydrochloride) was “did not survive; also recorded: very low” and the M.I.C. [36] was 16 ppm.
